Experimental data from US6458784B1, “Vitronectin receptor antagonists” (priority 1995, dated 2002).
Read-outs that look alike come from different tables or passages of the source.

Tests used:
[1] = target: GPIIb-IIIa (fibrinogen receptor, αIIbβ3) (Homo sapiens, UniProt P05106+P08514); test: Competitive binding to GPIIb-IIIa with [3H]-SK&F-107260 (inhibition of RGD-mediated GPIIb-IIIa binding)
Description: Ten units of outdated, washed human platelets (obtained from Red Cross) were lyzed by gentle stirring in 3% octylglucoside, 20 mM Tris-HCl, pH 7.4, 140 mM NaCl, 2 mM CaCl2 at 4° C. for 2 h. The lysate was centrifuged at 100,000 g for 1 h. The supernatant obtained was applied to a 5 mL lentil lectin sepharose 4B column (E.Y. Labs) preequilibrated with 20 mM Tris-HCl, pH 7.4, 100 mM NaCl, 2 mM CaCl2, 1% octylglucoside (buffer A). After 2 h incubation, the column was washed with 50 mL cold buffer A. The lectin-retained GPIIb-IIIa was eluted with buffer A containing 10% dextrose. All procedures were performed at 4° C.
A mixture of phosphatidylserine (70%) and phosphatidylcholine (30%) (Avanti Polar Lipids) were dried to the walls of a glass tube under a stream of nitrogen. […] The mixture was resuspended and sonicated in a bath sonicator for 5 min.
The binding assay was performed in a 96-well filtration plate assembly. (Millipore Corporation, Bedford, Mass.) using 0.22 um hydrophilic durapore membranes. The wells were precoated with 0.2 mL of 10 μg/mL polylysine (Sigma Chemical Co., St. Louis, Mo.) at room temperature for 1 h to block nonspecific binding. Various concentrations of unlabeled benzadiazapines were added to the wells in quadruplicate. […] The mixtures were incubated for 1 h at room temperature. […] Bound radioactivity remaining on the filters was counted in 1.5 mL Ready Solve (Beckman Instruments, Fullerton, Calif.) in a Beckman Liquid Scintillation Counter (Model LS6800), with 40% efficiency. […] All data points are the mean of quadruplicate determinations.
Competition binding data were analyzed by a nonlinear least-squares curve fitting procedure.

[2] = target: T1, αvβ3 (vitronectin receptor) (Homo sapiens, UniProt P05106+P06756); test: Solid-phase [3H]-SK&F-107260 binding to αvβ3 (inhibition of vitronectin binding); conditions: for ratio* (enhanced binding to vitronectin receptor vs fibrinogen receptor = αIIbβ3/αVβ3): selectivity αIIbβ3/αVβ3
T1 construct: Human placenta or human platelet αvβ3 (0.1-0.3 mg/mL) in buffer T; from tissue; host or cells: human placenta or human platelets
Description: Inhibition of Vitronectin Binding
0.1-0.2 μg of αvβ3 was added per well. The plates were incubated overnight at 4° C. […] Following incubation the wells were aspirated completely and washed twice with 0.2 mL buffer A.
This solution is then diluted to the required final compound concentration.
The plates were incubated for 1 hr at room temperature. Following incubation the wells were aspirated completely and washed once with 0.2 mL of ice cold buffer A in a well-to-well fashion.

Chain of GPIIb-IIIa (fibrinogen receptor, αIIbβ3) (P08514 32-887 limits assumed): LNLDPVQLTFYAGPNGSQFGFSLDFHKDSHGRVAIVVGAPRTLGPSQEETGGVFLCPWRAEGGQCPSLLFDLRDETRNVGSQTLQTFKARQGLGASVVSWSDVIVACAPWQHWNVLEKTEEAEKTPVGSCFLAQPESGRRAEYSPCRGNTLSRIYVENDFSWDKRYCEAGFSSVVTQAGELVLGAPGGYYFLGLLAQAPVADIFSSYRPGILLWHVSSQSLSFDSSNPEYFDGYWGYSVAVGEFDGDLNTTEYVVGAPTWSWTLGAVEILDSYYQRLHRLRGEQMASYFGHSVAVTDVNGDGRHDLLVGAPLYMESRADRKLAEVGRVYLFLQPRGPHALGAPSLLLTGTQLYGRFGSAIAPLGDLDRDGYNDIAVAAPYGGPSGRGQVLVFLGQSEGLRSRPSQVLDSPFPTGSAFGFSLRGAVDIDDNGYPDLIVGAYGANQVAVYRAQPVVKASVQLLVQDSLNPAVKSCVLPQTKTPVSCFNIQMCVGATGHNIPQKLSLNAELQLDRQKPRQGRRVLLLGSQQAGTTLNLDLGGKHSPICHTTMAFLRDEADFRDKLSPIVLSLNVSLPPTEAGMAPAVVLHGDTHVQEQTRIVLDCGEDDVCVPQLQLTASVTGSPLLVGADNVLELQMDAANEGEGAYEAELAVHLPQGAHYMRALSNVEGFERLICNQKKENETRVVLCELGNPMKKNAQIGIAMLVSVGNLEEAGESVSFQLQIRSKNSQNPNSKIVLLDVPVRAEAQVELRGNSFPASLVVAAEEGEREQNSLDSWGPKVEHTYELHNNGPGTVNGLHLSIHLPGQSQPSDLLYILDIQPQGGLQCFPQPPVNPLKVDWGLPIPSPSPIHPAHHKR
Chain of GPIIb-IIIa (fibrinogen receptor, αIIbβ3) (P08514 891-1039 partner limits assumed): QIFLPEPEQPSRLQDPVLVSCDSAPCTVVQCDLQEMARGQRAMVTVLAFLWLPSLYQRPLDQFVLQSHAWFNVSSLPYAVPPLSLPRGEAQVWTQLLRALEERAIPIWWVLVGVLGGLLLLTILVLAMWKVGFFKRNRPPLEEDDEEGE
Chain of GPIIb-IIIa (fibrinogen receptor, αIIbβ3) (P05106 27-788): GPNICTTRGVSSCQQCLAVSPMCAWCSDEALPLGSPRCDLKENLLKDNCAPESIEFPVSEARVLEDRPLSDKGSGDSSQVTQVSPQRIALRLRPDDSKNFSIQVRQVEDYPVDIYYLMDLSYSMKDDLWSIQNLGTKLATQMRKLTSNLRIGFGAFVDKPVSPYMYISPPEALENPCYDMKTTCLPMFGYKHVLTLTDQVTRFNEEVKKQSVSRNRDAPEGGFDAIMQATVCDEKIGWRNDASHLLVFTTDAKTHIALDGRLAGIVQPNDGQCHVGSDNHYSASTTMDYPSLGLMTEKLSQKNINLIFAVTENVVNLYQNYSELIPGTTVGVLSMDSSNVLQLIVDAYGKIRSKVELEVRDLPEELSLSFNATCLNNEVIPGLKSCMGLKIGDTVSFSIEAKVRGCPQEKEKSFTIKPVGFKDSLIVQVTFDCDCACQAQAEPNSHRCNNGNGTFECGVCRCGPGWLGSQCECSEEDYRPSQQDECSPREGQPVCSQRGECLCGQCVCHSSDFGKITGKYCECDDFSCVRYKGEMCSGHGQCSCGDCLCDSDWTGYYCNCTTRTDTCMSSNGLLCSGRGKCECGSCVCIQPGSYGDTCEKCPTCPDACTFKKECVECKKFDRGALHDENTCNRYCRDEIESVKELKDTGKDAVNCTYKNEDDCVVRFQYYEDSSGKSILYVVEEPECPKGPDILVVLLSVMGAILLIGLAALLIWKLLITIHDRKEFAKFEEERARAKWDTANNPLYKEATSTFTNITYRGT
T1 sequence (P06756 31-889 limits assumed): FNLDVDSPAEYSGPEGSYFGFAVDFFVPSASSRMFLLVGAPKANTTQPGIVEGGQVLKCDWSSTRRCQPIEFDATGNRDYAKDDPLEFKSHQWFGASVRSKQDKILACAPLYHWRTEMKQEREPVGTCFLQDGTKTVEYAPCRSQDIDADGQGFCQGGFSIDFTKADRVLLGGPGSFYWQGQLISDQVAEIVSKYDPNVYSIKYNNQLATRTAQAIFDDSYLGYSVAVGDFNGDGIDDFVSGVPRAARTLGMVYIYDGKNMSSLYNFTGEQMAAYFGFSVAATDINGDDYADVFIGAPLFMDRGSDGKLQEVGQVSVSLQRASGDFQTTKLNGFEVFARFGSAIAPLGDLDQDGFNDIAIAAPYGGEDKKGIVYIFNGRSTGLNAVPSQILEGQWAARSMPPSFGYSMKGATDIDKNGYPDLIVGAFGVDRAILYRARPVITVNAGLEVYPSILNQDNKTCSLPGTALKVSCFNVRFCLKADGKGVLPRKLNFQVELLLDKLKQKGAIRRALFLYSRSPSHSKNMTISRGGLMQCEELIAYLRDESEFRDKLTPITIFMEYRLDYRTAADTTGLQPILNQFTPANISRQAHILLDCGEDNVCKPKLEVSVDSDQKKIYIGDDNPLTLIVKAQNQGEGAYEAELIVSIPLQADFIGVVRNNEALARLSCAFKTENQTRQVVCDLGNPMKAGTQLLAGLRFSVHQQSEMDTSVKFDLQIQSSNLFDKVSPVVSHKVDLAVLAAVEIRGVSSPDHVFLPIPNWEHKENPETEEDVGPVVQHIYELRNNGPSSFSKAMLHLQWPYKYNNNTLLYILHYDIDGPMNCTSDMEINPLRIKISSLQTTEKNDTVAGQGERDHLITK
T1 sequence (P06756 891-1048 partner limits assumed): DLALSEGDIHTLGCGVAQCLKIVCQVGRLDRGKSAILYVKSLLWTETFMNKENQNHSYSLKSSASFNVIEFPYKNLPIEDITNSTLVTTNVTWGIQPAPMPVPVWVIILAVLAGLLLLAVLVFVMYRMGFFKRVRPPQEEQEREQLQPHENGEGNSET
T1 sequence (P05106 27-788): as the sequence (P05106 27-788) above

Ki [1]	Ki ([2]; read-out: αVβ3)	ratio* (enhanced binding to vitronectin receptor vs fibrinogen receptor = αIIbβ3/αVβ3) [2]	SMILES	Ki ([2]; displacement of 5.0 nM [3H]-SK&F-107260 from human placenta or platelet αvβ3, table does not say whether IC50 or Ki, method derives Ki, read-out: αVβ3)	Ki [2]
20.1 µM	1.45 µM	14	CN1Cc2cc(C(=O)N3CCC(N4CCCCC4)CC3)ccc2NC(CC(=O)O)C1=O (racemic) [Example 11, (±)-4-methyl-3-oxo-7-[1-[4-(1-piperidinyl)piperidinyl]carbonyl]-2,3,4,5-tetrahydro-1H-1,4-benzodiazepine-2-acetic acid]	–	–
> 50 µM	6.2 µM	>8	CN1Cc2cc(C(=O)N3CCN(c4ncccn4)CC3)ccc2NC(CC(=O)O)C1=O (racemic) [Example 14, (±)-4-methyl-3-oxo-7-[1-[4-(2-pyrmidinyl)piperazinyl]carbonyl]-2,3,4,5-tetrahydro-1H-1,4-benzodiazepine-2-acetic acid]	–	–
28 µM	9.5 µM	2.9	CN(CC(O)c1ccccc1)C(=O)c1ccc2c(c1)CN(C)C(=O)C(CC(=O)O)C2 (racemic) [Example 16, (±)-8-[[[(2-hydroxy-2-phenyl)ethyl]methylamino]carbonyl]-2-methyl-3-oxo-2,3,4,5-tetrahydro-1H-2-benzazepine-4-acetic acid]	–	–
30 µM	1.3 µM	23	CN1Cc2cc(NC(=O)CNc3ccccn3)ccc2CC(CC(=O)O)C1=O (racemic) [Example 18, (±)-8-[[(2-(2-pyridinylamino)acetyl]amino]-2-methyl-3-oxo-2,3,4,5-tetrahydro-1H-2-benzazepine-4-acetic acid]	–	–
45 µM	1.55 µM	29	CN1Cc2cc(NC(=O)CN)ccc2CC(CC(=O)O)C1=O (racemic) [Example 20, (±)-8-[(2-aminoacetyl)amino]-2-methyl-3-oxo-2,3,4,5-tetrahydro-1h-2-benzazepine-4-acetic acid]	–	–
52 µM	0.85 µM	61	CN1Cc2cc(NC(=O)CCN)ccc2CC(CC(=O)O)C1=O (racemic) [Example 21, (+/±)-8-[(3-aminopropanoyl)amino]-2-methyl-3-oxo-2,3,4,5-tetrahydro-1H-2-benzazepine-4-acetic acid]	–	–

Second part, the compound before the results:

SMILES	Ki [1]	Ki ([2]; read-out: αVβ3)	ratio* (enhanced binding to vitronectin receptor vs fibrinogen receptor = αIIbβ3/αVβ3) [2]	Ki ([2]; displacement of 5.0 nM [3H]-SK&F-107260 from human placenta or platelet αvβ3, table does not say whether IC50 or Ki, method derives Ki, read-out: αVβ3)	Ki [2]
CN1Cc2cc(NC(=O)[C@@H](N)Cc3ccccc3)ccc2CC(CC(=O)O)C1=O (mixture of isomers) [Example 15, 8-[[2S-amino-3-phenylpropanoyl]amino]-2-methyl-3-oxo-2,3,4,5-tetrahydro-1H-2-benzazepine-4RS-acetic acid]	37.5 µM	3.9 µM	9.6	–	–
Nc1ccc(NC(=O)c2ccc3c(c2)CN(CCc2ccccc2)C(=O)C(CC(=O)O)N3)cn1 (racemic) [Example 3, (±)-7-[[(6-amino-3-pyridinyl)amino]carbonyl]-3-oxo-4-(2-phenylethyl)-2,3,4,5-tetrahydro-1H-1,4-benzodiazepine-2-acetic acid]	110 µM	9.18 µM	12	–	–
CN1Cc2cc(NC(=O)c3ccccn3)ccc2CC(CC(=O)O)C1=O (racemic) [Example 5, (±)-2-methyl-3-oxo-8-[[2-(pyridinyl)carbonyl]amino]-2,3,4,5-tetrahydro-1H-2-benzazepine-4-acetic acid]	> 50 µM	15.3 µM	>3	–	–
CN1Cc2cc(NC(=O)OCc3ccccc3)ccc2CC(CC(=O)O)C1=O (racemic) [Example 6, (±)-8-[(benzyloxycarbonyl)amino]-2-methyl-3-oxo-2,3,4,5-tetrahydro-1H-2-benzazepine-4-acetic acid]	17.5 µM	7.5 µM	2.3	–	–
CN1Cc2cc(C(=O)Nc3cccc(C(N)=O)c3)ccc2NC(CC(=O)O)C1=O (racemic) [Example 8, (±)-7-[[[3-(aminocarbonyl)phenyl]amino]carbonyl]-4-methyl-3-oxo-2,3,4,5-tetrahydro-1H-1,4-benzodiazepine-2-acetic acid]	> 50 µM	12.3 µM	>4	–	–
CN1Cc2cc(C(=O)N3CCN(c4ccccc4)CC3)ccc2NC(CC(=O)O)C1=O (racemic) [Example 9, (±)-4-methyl-3-oxo-7-[1-(4-phenylpiperazinyl)carbonyl]-2,3,4,5-tetrahydro-1H-1,4-benzodiazepine-2-acetic acid]	> 100 µM	–	>11	9.23 µM	–
CN1Cc2cc(C(=O)N3CCNCC3)ccc2NC(CC(=O)O)C1=O (racemic) [Example 10, (±)-4-methyl-3-oxo-7-[(1-piperazinyl)carbonyl]-2,3,4,5-tetrahydro-1H-1,4-benzodiazepine-2-acetic acid]	2.13 µM	1.1 µM	>1.9	–	–
CN1Cc2cc(C(=O)N3CCN(Cc4ccccc4)CC3)ccc2NC(CC(=O)O)C1=O (racemic) [Example 13, (±)-4-methyl-3-oxo-7-[1-[4-(phenylmethyl)piperazinyl]carbonyl]2,3,4,5-tetrahydro-1H-1,4-benzodiazepine-2-acetic acid]	15.4 µM	9.5 µM	1.62	–	–
CN(CCO)C(=O)c1ccc2c(c1)CN(C)C(=O)C(CC(=O)O)N2 (racemic) [Example 17, (±)-7-[[[N-(2-hydroxyethyl)-N-methyl]amino]carbonyl]-4-methyl-3-oxo-2,3,4,5-tetrahydro-1H-1,4-benzodiazepine-2-acetic acid]	> 50 µM	15.2 µM	>3	–	–
CN1Cc2cc(C(=O)NCc3cccnc3)ccc2NC(CC(=O)O)C1=O (racemic) [Example 22, (±)-4-methyl-3-oxo-7-[[[(3-pyridinyl)methyl]amino]carbonyl]-2,3,4,5-tetrahydro-1H-1,4-benzodiazepine-2-acetic acid]	27 µM	–	3	–	9.02 µM
